Measurements reported in paper PMC9959817, “Flow-Based Fmoc-SPPS Preparation and SAR Study of Cathelicidin-PY Reveals Selective Antimicrobial Activity” (Molecules, 2023).
≈ marks a conversion by molar mass, not a printed value. Like-named read-outs stand apart in the source and are kept apart here. Where a SMILES comes first, the peptide text is derived from it. Bridges are numbered along the chain shown (N, C = ends). Where no end group is shown, it is not given here. [ ]: non-standard residue; d: D form. Dab = NCC[C@H](N)C(=O)O

What was measured:
[1] = system: C. albicans (SC5314); assay: microbe, parasite or virus in culture; type: cell-based, Candida albicans; conditions: read-out: Minimum Inhibitory Concentration
From the text: (§1) As we were primarily interested in the clinical potential of cathelicidin-PY (1) and its analogues 2–9, cation-adjusted Mueller-Hinton broth (CAMHB) was implemented during our in vitro antimicrobial screening towards bacteria. However, non-cation adjusted Mueller Hinton broth (MHB) was also implemented to evaluate the cation sensitivity of these AMPs. In each medium, compounds 1–9 were subjected to minimum inhibitory concentration (MIC) assays with E. coli (ATCC 25922), P. aeruginosa (SVB-B9), and S. aureus (ATCC 29213), in accordance with CLSI microbroth dilution protocols (Table 1). It is noteworthy, however, that the initial report of cathelicidin-PY’s isolation documented MIC assays performed in Luria Broth (LB). Furthermore, antifungal activity towards C. albicans was investigated.
Antimicrobial susceptibility of Candida albicans SC5314 (type strain) was assessed by broth microdilution in RPMI 1640 media in accordance with the CLSI recommended protocols. All assays were performed independently on three occasions, with the reported MIC defined as the lowest concentration for which agreement was observed consistently for all replicates.

[2] = system: S. aureus (ATCC 29213); assay: microbe, parasite or virus in culture; type: cell-based, Staphylococcus aureus; conditions: read-out: Minimum Inhibitory Concentration
From the text: as §1
(§2) Staphylococcus aureus ATCC 29213, Pseudomonas aeruginosa (SVB-B9) (type strain), and Escherichia coli ATCC 25,922 were grown in either non-cation-adjusted or cation-adjusted Mueller Hinton (MH) broth at 37 °C with shaking (200 rpm). MIC assays were performed in technical triplicate in accordance with the CLSI-recommended protocol. All assays were performed independently on three occasions, with the reported MIC defined as the lowest concentration for which agreement was observed consistently for all replicates.

[3] = system: P. aeruginosa (SVB-B9); assay: microbe, parasite or virus in culture; type: cell-based, Pseudomonas aeruginosa; conditions: for MIC: P. aeruginosa SVB-B9 type strain, 37 °C, technical triplicate, three independent occasions, read-out: Minimum Inhibitory Concentration; for Minimum Inhibitory Concentration: SVB-B9
From the text: as §1, §2

[4] = system: E. coli (ATCC 25922); type: cell-based, Escherichia coli; conditions: 37 °C, technical triplicate, three independent occasions
From the text: as §1, §2

[5] = non-cation-adjusted Mueller-Hinton broth (MHB)

| Compound | MIC ([1]; SC5314) [µM] | MIC ([2]; ATCC 29213) [µM] | Minimum Inhibitory Concentration [3] [µM] | also measured |
| --- | --- | --- | --- | --- |
| C[C@@H]1[C@H](O)[C@@H](C)/C=C/C=C/C=C/C=C/C=C/C=C/C=C/[C@H](O[C@@H]2O[C@H](C)[C@@H](O)[C@H](N)[C@@H]2O)C[C@@H]2O[C@](O)(C[C@@H](O)C[C@@H](O)[C@H](O)CC[C@@H](O)C[C@@H](O)CC(=O)O[C@H]1C)C[C@H](O)[C@H]2C(=O)O [A, Amphotericin B, reference compound] |  |  |  | MIC ([1]; Candida albicans, C. albicans SC5314 type strain, RPMI 1640 media, three independent occasions): 1 µM (≈ 0.924 µg/mL); MIC ([2]; S. aureus ATCC 29213, non-cation-adjusted Mueller-Hinton broth (MHB), 37 °C, technical triplicate, three independent occasions): >64 µM; MIC ([2]; Staphylococcus aureus, ATCC29213, S. aureus ATCC 29213, cation-adjusted Mueller-Hinton broth (CAMHB), 37 °C, technical triplicate, three independent occasions): > 64 µM; MIC ([3]; Pseudomonas aeruginosa, cation-adjusted Mueller-Hinton broth (CAMHB)): 2 µM (≈ 1.85 µg/mL) |
| polymyxin B sulfate [reference compound] |  |  |  | Minimum Inhibitory Concentration ([4]; cation-adjusted Mueller-Hinton broth (CAMHB)): 1 µM; Minimum Inhibitory Concentration [4, 5]: 1 µM; MIC [3, 5]: 2 µM |
| CC[C@H](C)[C@H](NC(=O)[C@H](Cc1c[nH]cn1)NC(=O)[C@H](CO)NC(=O)[C@@H](NC(=O)[C@@H](NC(=O)[C@@H](NC(=O)[C@@H](NC(=O)[C@H](CCCNC(=N)N)NC(=O)[C@H](CC(C)C)NC(=O)[C@H](CCCCN)NC(=O)[C@H](CCC(=O)O)NC(=O)[C@H](CCCCN)NC(=O)[C@H](CC(C)C)NC(=O)[C@H](CCCCN)NC(=O)[C@@H]1CCCCNC(=O)C[C@H](NC(=O)[C@H](CCCCN)NC(=O)[C@@H](N)CCCNC(=N)N)C(=O)N[C@@H](CC(N)=O)C(=O)N[C@@H](Cc2ccccc2)C(=O)N[C@@H](CC(C)C)C(=O)N1)[C@@H](C)O)C(C)C)[C@@H](C)CC)[C@@H](C)O)C(=O)N[C@@H](CC(=O)O)C(=O)N[C@@H](CCCCN)C(=O)N[C@H](C(=O)N[C@@H](CC(C)C)C(=O)N[C@@H](CCCNC(=N)N)C(=O)N1CCC[C@H]1C(=O)N[C@@H](CCC(N)=O)C(=O)NCC(=O)O)C(C)C [Compound 5] (H-RKDNFLKKLKEKLRTVITSHIDKVLRPQG-OH; lactam 3-7) | >64 | >64 |  |  |
| CC[C@H](C)[C@H](NC(=O)[C@H](Cc1c[nH]cn1)NC(=O)[C@H](CO)NC(=O)[C@@H](NC(=O)[C@@H](NC(=O)[C@@H](NC(=O)[C@@H](NC(=O)[C@H](CCCNC(=N)N)NC(=O)[C@H](CC(C)C)NC(=O)[C@H](CCCCN)NC(=O)[C@H](CCC(=O)O)NC(=O)[C@H](CCCCN)NC(=O)[C@H](CC(C)C)NC(=O)[C@H](CCCCN)NC(=O)[C@@H]1CCNC(=O)CC[C@H](NC(=O)[C@H](CCCCN)NC(=O)[C@@H](N)CCCNC(=N)N)C(=O)N[C@@H](CC(N)=O)C(=O)N[C@@H](Cc2ccccc2)C(=O)N[C@@H](CC(C)C)C(=O)N1)[C@@H](C)O)C(C)C)[C@@H](C)CC)[C@@H](C)O)C(=O)N[C@@H](CC(=O)O)C(=O)N[C@@H](CCCCN)C(=O)N[C@H](C(=O)N[C@@H](CC(C)C)C(=O)N[C@@H](CCCNC(=N)N)C(=O)N1CCC[C@H]1C(=O)N[C@@H](CCC(N)=O)C(=O)NCC(=O)O)C(C)C [Compound 9] (H-RKENFL[Dab]KLKEKLRTVITSHIDKVLRPQG-OH; lactam 3-7) | >64 | >64 |  |  |
| CC[C@H](C)[C@H](NC(=O)[C@H](Cc1c[nH]cn1)NC(=O)[C@H](CO)NC(=O)[C@@H](NC(=O)[C@@H](NC(=O)[C@@H](NC(=O)[C@@H](NC(=O)[C@H](CCCNC(=N)N)NC(=O)[C@H](CC(C)C)NC(=O)[C@H](CCCCN)NC(=O)[C@H](CCC(=O)O)NC(=O)[C@H](CCCCN)NC(=O)[C@H](CC(C)C)NC(=O)[C@H](CCCCN)NC(=O)[C@@H]1CC(=O)NCCCC[C@H](NC(=O)[C@H](CCCCN)NC(=O)[C@@H](N)CCCNC(=N)N)C(=O)N[C@@H](CC(N)=O)C(=O)N[C@@H](Cc2ccccc2)C(=O)N[C@@H](CC(C)C)C(=O)N1)[C@@H](C)O)C(C)C)[C@@H](C)CC)[C@@H](C)O)C(=O)N[C@@H](CC(=O)O)C(=O)N[C@@H](CCCCN)C(=O)N[C@H](C(=O)N[C@@H](CC(C)C)C(=O)N[C@@H](CCCNC(=N)N)C(=O)N1CCC[C@H]1C(=O)N[C@@H](CCC(N)=O)C(=O)NCC(=O)O)C(C)C [Compound 7] (H-RKKNFLDKLKEKLRTVITSHIDKVLRPQG-OH; lactam 3-7) | >64 | >64 |  |  |
| CC[C@H](C)[C@H](NC(=O)[C@H](Cc1c[nH]cn1)NC(=O)[C@H](CO)NC(=O)[C@@H](NC(=O)[C@@H](NC(=O)[C@@H](NC(=O)[C@@H](NC(=O)[C@H](CCCNC(=N)N)NC(=O)[C@H](CC(C)C)NC(=O)[C@H](CCCCN)NC(=O)[C@H](CCC(=O)O)NC(=O)[C@H](CCCCN)NC(=O)[C@H](CC(C)C)NC(=O)[C@H](CCCCN)NC(=O)[C@@H]1CCCCNC(=O)CC[C@H](NC(=O)[C@H](CCCCN)NC(=O)[C@@H](N)CCCNC(=N)N)C(=O)N[C@@H](CC(N)=O)C(=O)N[C@@H](Cc2ccccc2)C(=O)N[C@@H](CC(C)C)C(=O)N1)[C@@H](C)O)C(C)C)[C@@H](C)CC)[C@@H](C)O)C(=O)N[C@@H](CC(=O)O)C(=O)N[C@@H](CCCCN)C(=O)N[C@H](C(=O)N[C@@H](CC(C)C)C(=O)N[C@@H](CCCNC(=N)N)C(=O)N1CCC[C@H]1C(=O)N[C@@H](CCC(N)=O)C(=O)NCC(=O)O)C(C)C [Compound 4] (H-RKENFLKKLKEKLRTVITSHIDKVLRPQG-OH; lactam 3-7) | >64 | >64 |  |  |
| CC[C@H](C)[C@H](NC(=O)[C@H](Cc1c[nH]cn1)NC(=O)[C@H](CO)NC(=O)[C@@H](NC(=O)[C@@H](NC(=O)[C@@H](NC(=O)[C@@H](NC(=O)[C@H](CCCNC(=N)N)NC(=O)[C@H](CC(C)C)NC(=O)[C@H](CCCCN)NC(=O)[C@H](CCC(=O)O)NC(=O)[C@H](CCCCN)NC(=O)[C@H](CC(C)C)NC(=O)[C@H](CCCCN)NC(=O)[C@@H]1CCC(=O)NCCCC[C@H](NC(=O)[C@H](CCCCN)NC(=O)[C@@H](N)CCCNC(=N)N)C(=O)N[C@@H](CC(N)=O)C(=O)N[C@@H](Cc2ccccc2)C(=O)N[C@@H](CC(C)C)C(=O)N1)[C@@H](C)O)C(C)C)[C@@H](C)CC)[C@@H](C)O)C(=O)N[C@@H](CC(=O)O)C(=O)N[C@@H](CCCCN)C(=O)N[C@H](C(=O)N[C@@H](CC(C)C)C(=O)N[C@@H](CCCNC(=N)N)C(=O)N1CCC[C@H]1C(=O)N[C@@H](CCC(N)=O)C(=O)NCC(=O)O)C(C)C [Compound 6] (H-RKKNFLEKLKEKLRTVITSHIDKVLRPQG-OH; lactam 3-7) | >64 | >64 | 4 to 8 |  |
| CC[C@H](C)[C@@H]1NC(=O)[C@H](Cc2c[nH]cn2)NC(=O)[C@H](CO)NC(=O)[C@H]([C@@H](C)O)NC(=O)[C@H]([C@@H](C)CC)NC(=O)[C@H](C(C)C)NC(=O)[C@H]([C@@H](C)O)NC(=O)[C@H](CCCNC(=N)N)NC(=O)[C@H](CC(C)C)NC(=O)[C@H](CCCCN)NC(=O)[C@H](CCC(=O)O)NC(=O)[C@H](CCCCN)NC(=O)[C@H](CC(C)C)NC(=O)[C@H](CCCCN)NC(=O)[C@@H]2CSSC[C@H](NC(=O)[C@H](CCCCN)NC(=O)[C@H](CCCNC(=N)N)NC(=O)CNC(=O)[C@H](CCC(N)=O)NC(=O)[C@@H]3CCCN3C(=O)[C@H](CCCNC(=N)N)NC(=O)[C@H](CC(C)C)NC(=O)[C@H](C(C)C)NC(=O)[C@H](CCCCN)NC(=O)[C@H](CC(=O)O)NC1=O)C(=O)N[C@@H](CC(N)=O)C(=O)N[C@@H](Cc1ccccc1)C(=O)N[C@@H](CC(C)C)C(=O)N2 [Compound 3] (cyclo(CKLKEKLRTVITSHIDKVLRPQGRKCNFL); disulfide 1-26) | >64 | >64 |  |  |
| RKANFLAKLKEKLRTVITSHIDKVLRPQG [Compound 2] | >64 | >64 | 4 to 8 |  |
| CC[C@H](C)[C@H](NC(=O)[C@H](Cc1c[nH]cn1)NC(=O)[C@H](CO)NC(=O)[C@@H](NC(=O)[C@@H](NC(=O)[C@@H](NC(=O)[C@@H](NC(=O)[C@H](CCCNC(=N)N)NC(=O)[C@H](CC(C)C)NC(=O)[C@H](CCCCN)NC(=O)[C@H](CCC(=O)O)NC(=O)[C@H](CCCCN)NC(=O)[C@H](CC(C)C)NC(=O)[C@H](CCCCN)NC(=O)[C@@H]1CCNC(=O)C[C@H](NC(=O)[C@H](CCCCN)NC(=O)[C@@H](N)CCCNC(=N)N)C(=O)N[C@@H](CC(N)=O)C(=O)N[C@@H](Cc2ccccc2)C(=O)N[C@@H](CC(C)C)C(=O)N1)[C@@H](C)O)C(C)C)[C@@H](C)CC)[C@@H](C)O)C(=O)N[C@@H](CC(=O)O)C(=O)N[C@@H](CCCCN)C(=O)N[C@H](C(=O)N[C@@H](CC(C)C)C(=O)N[C@@H](CCCNC(=N)N)C(=O)N1CCC[C@H]1C(=O)N[C@@H](CCC(N)=O)C(=O)NCC(=O)O)C(C)C [Compound 8] (H-RKDNFL[Dab]KLKEKLRTVITSHIDKVLRPQG-OH; lactam 3-7) | >64 | >64 | 4 to 8 |  |
